Experimental data reported in ChEMBL document CHEMBL1201862, “PubChem BioAssay data set” (2004).
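How tested: cells in 96-well plates exposed to compound for 48 hours at five concentrations. GI50: concentration for 50% inhibition of growth.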 Active and inactive are the calls of the source. Cut-off read from the data, not from the text of the source: active = GI50 up to about 1.1 µM and inactive = higher.

Legend:
Assay in all cases: DTP human tumour cell line panel, 48 h
RPMI-8226 = system: RPMI-8226
NCI-H522 = system: NCI-H522
DLD-1 = system: DLD-1
UACC-62 = system: UACC-62
SNB-78 = system: SNB-78
OVCAR-5 = system: OVCAR-5
MOLT-4 = system: MOLT-4
OVCAR-4 = system: OVCAR-4
SF-268 = system: SF-268
HOP-92 = system: HOP-92
KM12 = system: KM12
SF-295 = system: SF-295
NCI/ADR-RES = system: NCI/ADR-RES
KM-20L2 = system: KM-20L2
SNB-19 = system: SNB-19
NCI-H460 = system: NCI-H460
Malme-3M = system: Malme-3M
SW-620 = system: SW-620
SK-MEL-2 = system: SK-MEL-2
CAKI-1 = system: CAKI-1
RXF 393 = system: RXF 393
OVCAR-3 = system: OVCAR-3
SK-OV-3 = system: SK-OV-3
U-251 = system: U-251
DMS-273 = system: DMS-273
A549 = system: A549
NCI-H23 = system: NCI-H23
UO-31 = system: UO-31
NCI-H226 = system: NCI-H226
SF-539 = system: SF-539
DMS-114 = system: DMS-114
HCC 2998 = system: HCC 2998
SN12C = system: SN12C
XF498 = system: XF498
SK-MEL-28 = system: SK-MEL-28
SNB-75 = system: SNB-75
HOP-62 = system: HOP-62
IGROV-1 = system: IGROV-1
HCT-15 = system: HCT-15
CCRF-CEM = system: CCRF-CEM
HL-60 = system: HL-60
SK-MEL-5 = system: SK-MEL-5
MCF7 = system: MCF7
M19-MEL = system: M19-MEL
HCT-116 = system: HCT-116
A498 = system: A498
COLO 205 = system: COLO 205
HT-29 = system: HT-29
OVCAR-8 = system: OVCAR-8
UACC-257 = system: UACC-257
HOP-18 = system: HOP-18
K562 = system: K562
EKVX = system: EKVX
LOX IMVI = system: LOX IMVI
Hs-578T = system: Hs-578T
LXFL 529 = system: LXFL 529
MDA-MB-435 = system: MDA-MB-435
T47D = system: T47D
DU-145 = system: DU-145

## CC(C)c1oc(=O)cc2c1C(O)C1OC(=O)C3(C)C(O)C4OC4C2(C)C13 (stereo not given) [NAGILACTONE]
RPMI-8226
  GI50: 1100 nM (active)
NCI-H522
  GI50: 1150 nM (inactive)
DLD-1
  GI50: 1230 nM (inactive)
UACC-62
  GI50: 1380 nM (inactive)
SNB-78
  GI50: 6250 nM (inactive)
OVCAR-5
  GI50: 9480 nM (inactive)
MOLT-4
  GI50: 830 nM (active)
OVCAR-4
  GI50: 2120 nM (inactive)
SF-268
  GI50: 4090 nM (inactive)
HOP-92
  GI50: 700 nM (active)
KM12
  GI50: 1720 nM (inactive)
SF-295
  GI50: 1650 nM (inactive)
NCI/ADR-RES
  GI50: 12900 nM (inactive)
KM-20L2
  GI50: 1630 nM (inactive)
SNB-19
  GI50: 573 nM (active)
NCI-H460
  GI50: 733 nM (active)
Malme-3M
  GI50: 1690 nM (inactive)
SW-620
  GI50: 1450 nM (inactive)
SK-MEL-2
  GI50: 2160 nM (inactive)
CAKI-1
  GI50: 2080 nM (inactive)
RXF 393
  GI50: 1620 nM (inactive)
OVCAR-3
  GI50: 1410 nM (inactive)
SK-OV-3
  GI50: 5200 nM (inactive)
U-251
  GI50: 1580 nM (inactive)
DMS-273
  GI50: 966 nM (active)
A549
  GI50: 2440 nM (inactive)
NCI-H23
  GI50: 1360 nM (inactive)
UO-31
  GI50: 4520 nM (inactive)
NCI-H226
  GI50: 2160 nM (inactive)
SF-539
  GI50: 989 nM (active)
DMS-114
  GI50: 1130 nM (inactive)
HCC 2998
  GI50: 1860 nM (inactive)
SN12C
  GI50: 1310 nM (inactive)
XF498
  GI50: 703 nM (active)
SK-MEL-28
  GI50: 1370 nM (inactive)
SNB-75
  GI50: 1920 nM (inactive)
HOP-62
  GI50: 2150 nM (inactive)
IGROV-1
  GI50: 2750 nM (inactive)
HCT-15
  GI50: 2070 nM
CCRF-CEM
  GI50: 817 nM (active)
HL-60
  GI50: 478 nM (active)
SK-MEL-5
  GI50: 628 nM (active)
MCF7
  GI50: 728 nM (active)
M19-MEL
  GI50: 1260 nM (inactive)
HCT-116
  GI50: 1090 nM (active)
A498
  GI50: 569 nM (active)
COLO 205
  GI50: 1130 nM (inactive)
HT-29
  GI50: 1690 nM (inactive)
OVCAR-8
  GI50: 1750 nM (inactive)
UACC-257
  GI50: 1830 nM (inactive)
HOP-18
  GI50: 3480 nM (inactive)
K562
  GI50: 1010 nM (active)
EKVX
  GI50: 2190 nM (inactive)
LOX IMVI
  GI50: 653 nM (active)

## O=C1C(Cl)=C(N2CCN(CCOCCO)CC2)C(=O)c2c(O)ccc(O)c21
NCI-H522
  GI50: 174 nM (active)
DLD-1
  GI50: 195 nM (active)
SNB-78
  GI50: 363 nM (active)
OVCAR-5
  GI50: 1790 nM (inactive)
HOP-92
  GI50: 231 nM (active)
Hs-578T
  GI50: 2640 nM (inactive)
KM-20L2
  GI50: 716 nM (active)
LXFL 529
  GI50: 224 nM (active)
NCI-H460
  GI50: 3100 nM (inactive)
MDA-MB-435
  GI50: 295 nM (active)
SK-MEL-2
  GI50: 404 nM (active)
DMS-273
  GI50: 1050 nM (active)
A549
  GI50: 2710 nM (inactive)
NCI-H226
  GI50: 1990 nM (inactive)
T47D
  GI50: 438 nM (active)
SF-539
  GI50: 1300 nM (inactive)
HCC 2998
  GI50: 1930 nM (inactive)
XF498
  GI50: 557 nM (active)
DU-145
  GI50: 1850 nM (inactive)
SNB-75
  GI50: 1410 nM (inactive)
HCT-15
  GI50: 292 nM
HOP-18
  GI50: 1380 nM (inactive)

## CC1CC(C)(O)C2C3(C)CCCC2(COC3=O)C12CCC1(CCOC1=O)O2 (stereo not given)
RPMI-8226
  GI50: > 250000 nM (inactive)
NCI-H522
  GI50: > 250000 nM (inactive)
DLD-1
  GI50: > 250000 nM (inactive)
UACC-62
  GI50: > 250000 nM (inactive)
SNB-78
  GI50: > 250000 nM (inactive)
OVCAR-5
  GI50: > 250000 nM (inactive)
MOLT-4
  GI50: > 250000 nM (inactive)
OVCAR-4
  GI50: > 250000 nM (inactive)
SF-268
  GI50: > 250000 nM (inactive)
HOP-92
  GI50: > 250000 nM (inactive)
KM12
  GI50: > 250000 nM (inactive)
SF-295
  GI50: > 250000 nM (inactive)
NCI/ADR-RES
  GI50: > 250000 nM (inactive)
KM-20L2
  GI50: > 250000 nM (inactive)
SNB-19
  GI50: > 250000 nM (inactive)
NCI-H460
  GI50: > 250000 nM (inactive)
Malme-3M
  GI50: > 250000 nM (inactive)
SW-620
  GI50: > 250000 nM (inactive)
SK-MEL-2
  GI50: > 250000 nM (inactive)
CAKI-1
  GI50: > 250000 nM (inactive)
RXF 393
  GI50: > 250000 nM (inactive)
OVCAR-3
  GI50: > 250000 nM (inactive)
SK-OV-3
  GI50: > 250000 nM (inactive)
U-251
  GI50: > 250000 nM (inactive)
DMS-273
  GI50: > 250000 nM (inactive)
A549
  GI50: > 250000 nM (inactive)
NCI-H23
  GI50: > 250000 nM (inactive)
UO-31
  GI50: > 238000 nM (inactive)
NCI-H226
  GI50: > 250000 nM (inactive)
SF-539
  GI50: > 250000 nM (inactive)
DMS-114
  GI50: > 250000 nM (inactive)
HCC 2998
  GI50: > 250000 nM (inactive)
SN12C
  GI50: > 250000 nM (inactive)
XF498
  GI50: 38300 nM (inactive)
SK-MEL-28
  GI50: > 250000 nM (inactive)
SNB-75
  GI50: > 250000 nM (inactive)
HOP-62
  GI50: > 250000 nM (inactive)
IGROV-1
  GI50: > 250000 nM (inactive)
HCT-15
  GI50: > 250000 nM
CCRF-CEM
  GI50: > 250000 nM (inactive)
HL-60
  GI50: > 250000 nM (inactive)
SK-MEL-5
  GI50: > 250000 nM (inactive)
MCF7
  GI50: > 250000 nM (inactive)
M19-MEL
  GI50: > 250000 nM (inactive)
HCT-116
  GI50: > 250000 nM (inactive)
A498
  GI50: > 163000 nM (inactive)
COLO 205
  GI50: > 250000 nM (inactive)
HT-29
  GI50: > 250000 nM (inactive)
OVCAR-8
  GI50: > 250000 nM (inactive)
UACC-257
  GI50: > 250000 nM (inactive)
HOP-18
  GI50: > 250000 nM (inactive)
K562
  GI50: > 250000 nM (inactive)
EKVX
  GI50: > 250000 nM (inactive)
LOX IMVI
  GI50: > 250000 nM (inactive)
